Reference: publication PMC4798226, “Streptococcus pneumoniae Cell-Wall-Localized Phosphoenolpyruvate Protein Phosphotransferase Can Function as an Adhesin: Identification of Its Host Target Molecules and Evaluation of Its Potential as a Vaccine” (PLoS ONE, 2016)
Ends that are not written are not given here.

Assays:
[1] = test system: S. pneumoniae strain WU2 adhesion to A549 cells; assay: Inhibition of adhesion of S. pneumoniae strain WU2 to A549 cells; format: cell-based, Streptococcus pneumoniae; details: CFU counting
Description: (§1) A549 and D562 cells were cultured on fibronectin-coated 96-well plates (Fig 2 and S2 Fig) or on Ibidi 8 well chambers (Ibidi GmbH, Planegg/Martinsried, Germany; Figs 3, 4 and 5) or on 96-well plates without fibronectin coating (Figs 7 and 8 and S3 Fig), as previously described. Briefly, the cells were seeded at 5 × 10^4 cells/well in DMEM supplemented with 10% fetal calf serum (FCS) (without antibiotics). Twenty four hours later, the cells (~10^5 cells/well) were blocked with 0.5% gelatin for 1 h. rPtsA (0–500 nM) was then added to the cultured cells for 1 h of incubation. Excess protein was removed, and S. pneumoniae bacteria at a MOI of ~10:1 were added for additional 1 h of incubation. The inoculum size was verified in each experiment. […] Following the incubation, excess bacteria were removed, and cells were detached with trypsin and plated onto blood agar plates for counting. All the inhibitors were used at concentrations below their toxic concentrations either to the bacteria or to the cells. Keyhole limpet hemocyanin (KLH) protein was used as a negative control. Experiments were conducted in triplicates and repeated on 3 different occasions.
(§2) Inhibition of adhesion to A549 cells by anti-rPtsA antiserum, phages or peptides was performed as previously described. Briefly, bacteria were incubated for 1 h with rabbit anti-rPtsA antiserum, the phages, or the selected peptides. The bacteria were then added to the cultured human cells for an additional hour. Following this incubation, excess bacteria were removed, and the procedure was continued as described above. All the inhibitors were used at concentrations below their toxic concentrations either to the bacteria or to the cells. Negative controls included pre-immune serum, phage carrying no insert or a non-inhibitory insert, and a scrambled peptide. Each experiment was performed in triplicates and repeated on 3 different occasions and a representative experiment is presented.

[2] = target: rPtsA (Streptococcus pneumoniae serotype 4, UniProt A0A0H2UQ90); assay: biochemical; format: binding
Description: In all cases, 16 serial dilutions of each putative receptor-derived peptide (~90 nM–3.175 mM) were mixed with a constant concentration of 335 nM labeled rPtsA protein. The normalized change in the fluorescence of the labeled rPtsA protein was plotted against the peptide concentration, and a fit was computed by the NTP program. The experiments were performed in triplicate.
rPtsA labeled with fluorescent NT-495 dye at a constant concentration of 335 nM was mixed with sixteen serial dilutions (~90 nM–3.175 mM) of peptides derived from PCDH19, MMRN1, Eps1, Int β and BMPER. Contactin 4, was used as a negative control. MST analysis was performed using Monolith NT.115 (NanoTemper Technologies GmbH, München, Germany). The normalized change in the fluorescence of bound and unbound labeled rPtsA (ΔF) is indicative of the peptide binding. Plotting ΔF vs. peptide concentration facilitated the generation the dissociation curves, computed by the NTP program. In this way the Kd, reflecting the affinity of each of the peptides for rPtsA, was obtained. […] Each experiment was performed in triplicate.

[3] = test system: S. pneumoniae adhesion to A549 cells; assay: Inhibition of adhesion of S. pneumoniae to A549 cells, strain not stated (scrambled peptide control); format: cell-based, Streptococcus pneumoniae; details: bacteria treated 1 h with peptide, added to A549 cells for 1 h; CFU counting; strain not printed (Fig 8K)
Description: as §1
Fig 8 Inhibition of adhesion of S. pneumoniae cells to A549 cells by target-derived peptides. […]

[4] = test system: S. pneumoniae strain WU2 adhesion to Detroit 562 cells; assay: Inhibition of adhesion of S. pneumoniae strain WU2 to Detroit 562 cells; format: cell-based, Streptococcus pneumoniae; details: bacteria treated 1 h with peptide, added to Detroit 562 cells for 2 h; CFU counting; 3–6 replicates
[5] = test system: S. pneumoniae strain WU2; assay: Nasopharyngeal and lung colonization of CBA/N^xid mice after intranasal inoculation of peptide-pretreated strain WU2; format: in vivo, Streptococcus pneumoniae
Description: BALB/c (highly resistant to S. pneumonia) or CBA/N^xid (highly susceptible to S. pneumoniae) mice strains were immunized subcutaneously (SC) with 25 μg of rPtsA emulsified with complete Freund’s adjuvant (CFA) and subsequently boosted (days 14 and 28) with incomplete Freund’s adjuvant (IFA). On day 42, the BALB/c and CBA/N^xid mice were challenged intranasally (IN), under deep anesthesia using Isoflurane (Piramal Critical Care Inc., PA, USA), with a sublethal dose of strain WU2 (5 × 10^7 and 5 ×x 10^5, respectively). Mice were humanely sacrificed 3 and 24 h later by CO2 asphyxiation, as recommended by the AVMA Guidelines for Euthanasia in Animals: 2013 Edition (https://www.avma.org/KB/Policies/Documents/euthanasia.pdf). Strain WU2 cells were pretreated with the respective peptides and then inoculated IN into adult CBA/N^xid mice. Mice were euthanized 3, 24 or 48 h later with CO2. The nasopharynx and right lobe lung were excised, homogenized and plated onto blood agar plates for bacterial colony counting. For survival experiments, after an immunization regime similar to that described above, BALB/c or CBA/N^xid mice were challenged with a lethal dose of strain WU2 either IN (10^8 CFU and 10^6 CFU, respectively) or intravenously (10^4 CFU). […] The following criteria were considered sufficient evidence of distress to warrant such intervention in order to minimize pain and suffering of the animals: severe weight loss (20% body weight); reluctance or inability to move freely; appearance of bristle fur; social disengagement; refusal or inability to eat or drink. No analgesic treatment was provided, as such treatment may alter the immune response and may independently affect the outcome of the experiments.
Strain WU2 cells were pretreated with Eps 1, BMPER and PCDH19 peptides and then inoculated IN into adult CBA/N^xid mice. Mice were euthanized 3, 24 or 48 h later. The nasopharynx and lungs were excised, homogenized and plated onto blood agar plates for counting. As a control, another group of mice was injected with bacteria treated ex vivo for 1 h with PBS alone.
Fig 9 Effects of target-derived peptides on nasopharyngeal and lung colonization and survival in mice. Strain WU2 cells were pretreated with peptide and then inoculated IN into adult CBA/N^xid mice. As a control, another group of mice was injected with bacteria treated ex vivo for 1 h with PBS alone. Mice were euthanized 3, 24 or 48 h later. The nasopharynx and lungs were excised, homogenized and plated onto blood agar plates for counting. […]

[6] = test system: S. pneumoniae strain 3.8DW adhesion to A549 cells; assay: Inhibition of adhesion of S. pneumoniae strain 3.8DW to A549 cells; format: cell-based, Streptococcus pneumoniae; details: bacteria treated 1 h with peptide, added to A549 cells (plates without fibronectin coating) for 1 h; CFU counting
Description: as §1, §2

[7] = test system: S. pneumoniae strain D39 adhesion to A549 cells; assay: Inhibition of adhesion of S. pneumoniae strain D39 to A549 cells; format: cell-based, Streptococcus pneumoniae; details: bacteria treated 1 h with peptide, added to A549 cells (plates without fibronectin coating) for 1 h; CFU counting
Description: as §1
(§3) Inhibition of adhesion to A549 cells by anti-rPtsA antiserum, phages or peptides was performed as previously described. Briefly, bacteria were incubated for 1 h with rabbit anti-rPtsA antiserum, the phages, or the selected peptides. […]

[8] = test system: S. pneumoniae strain R6 adhesion to A549 cells; assay: Inhibition of adhesion of S. pneumoniae strain R6 to A549 cells; format: cell-based, Streptococcus pneumoniae; details: bacteria treated 1 h with peptide, added to A549 cells (plates without fibronectin coating) for 1 h; CFU counting
Description: as §1, §3

[9] = target: HAT-tagged recombinant phosphoenolpyruvate protein phosphotransferase (rPtsA) (Streptococcus pneumoniae (serotype 3 strain WU2)); assay: MST; labeled rPtsA (NT-495 dye) constant at 335 nM; 16 serial dilutions of each peptide (~90 nM–3.175 mM); Monolith NT.115; triplicate
[10] = bacteria incubated 1 h with antiserum or phage, then added to gelatin-blocked A549 cells (fibronectin-coated plates) for 1 h
[11] = WU2 pretreated with Eps 1 (14.7 μM), versus sham-treated (PBS) bacteria
[12] = WU2 pretreated with peptide (Eps 1 14.7 μM; BMPER 7 and 14 μM; PCDH19 14.7 and 27.4 μM), versus sham-treated bacteria
[13] = bacteria treated 1 h with peptide, added to A549 cells (96-well plates without fibronectin coating) for 1 h

## ADDESPEMKPGX [phage D8]
[1]; [10]
  Inhibition of adhesion of strain WU2 to A549 cells: inhibited

## ADGGVPV [phage H10]
[1]; [10]
  Inhibition of adhesion of strain WU2 to A549 cells: inhibited
[1]; phage incubated with strain WU2 for 1 h, added to A549 cells, in comparison to adhesion of bacteria without inhibitors
  Reduction in adhesion of strain WU2 to A549 cells: 75%

## AVVVNDANRTRK [phage D3]
[1]; [10]
  Inhibition of adhesion of strain WU2 to A549 cells: inhibited

## DQRPAXRRMYRA [phage D10]
[1]; [10]
  Inhibition of adhesion of strain WU2 to A549 cells: inhibited

## DQVARIPVIRRV [Intβ4]
[2]
  Kd: 115 ± 20.5 µM

## LDSIRIIVIRRI [phage H9]
[1]; [10]
  Inhibition of adhesion of strain WU2 to A549 cells: inhibited

## LPADWATTLMVCSSK [scrambled peptide]
[3]
  Inhibition of adhesion of S. pneumoniae to A549 cells: No significant inhibition

## SDGGVPV [Eps 1]
[4]
  Inhibition of adhesion of strain WU2 to Detroit 562 cells: significant inhibition
[5]; [11]
  Bacterial load in the lungs, 3 h post inoculation: significant reduction
  Bacterial load in the nasopharynx, 3 h post inoculation: significant reduction
[5]; [12]
  Bacterial load in the lungs, 48 h post inoculation: significant reduction
  Bacterial load in the nasopharynx, 48 h post inoculation: significant reduction
[6]
  Inhibition of adhesion of strain 3.8DW to A549 cells: significantly inhibited
[7]
  Inhibition of adhesion of strain D39 to A549 cells: significantly inhibited
[1]; [13]
  Inhibition of adhesion of strain WU2 to A549 cells: significantly inhibited
[8]
  Inhibition of adhesion of strain R6 to A549 cells: significantly inhibited

## TEQVSDQKNAPA [MMRN1]
[6]
  Inhibition of adhesion of strain 3.8DW to A549 cells: significant inhibition
[1]; [13]
  Inhibition of adhesion of strain WU2 to A549 cells: significant inhibition

## TXQVSNHKNHTN [phage E6]
[1]; [10]
  Inhibition of adhesion of strain WU2 to A549 cells: inhibited

## VLVKNDARRTRS [BMPER]
[2]
  Kd: 21 ± 5.49 µM

## VVVSDATRVRVA [Col VII]
[6]
  Inhibition of adhesion of strain 3.8DW to A549 cells: significant inhibition
[1]; [13]
  Inhibition of adhesion of strain WU2 to A549 cells: significant inhibition

## WECKANGRPKPTY [Contactin 4-derived peptide, reference compound]
[2]; MST, Monolith NT.115, 335 nM NT-495-labeled rPtsA, 16 serial dilutions of peptide ~90 nM–3.175 mM, fit by NTP program, triplicate
  Kd (affinity of rPtsA binding to peptide): a fit could not be generated

## DQVARIPVIRRV [Int β4-derived peptide]
[9]
  Kd: 115 µM

## DGGVPML [PCDH19-derived peptide]
[9]
  Kd: 58 µM

## SDGGVPV [Eps 1-derived peptide]
[9]
  Kd: 43.9 µM

## VLVKNDARRTRS [BMPER-derived peptide]
[9]
  Kd: 21 µM

## TEQVSDQKNAPA [MMRN1-derived peptide]
[9]
  Kd: 391 µM
